Source: patent publication US4399125A, “Novel antagonists of the antidiuretic action of arginine vasopressin” (priority 1981, dated 1983)
*1 amine or outer side, *2 acyl side, *3 side chain or, on linkers, in order; H or OH if unused. Where a SMILES comes first, the peptide text is derived from it. Bridges are numbered along the chain shown (N, C = ends). [ ]: non-standard residue; d: D form. X1 = O=C(CC1(S[*:2])CCCCC1)[*:1]

Assays:
[1] = tested on: vasopressor response to AVP; assay: Antagonism to the vasopressor response (Dyckes et al.); conditions: estimated in vivo pA2 (Schild); effective dose / 67 mL/kg; (n) in parentheses
Method: Antagonism to the vasopressor response was estimated in accordance with Dyckes et al., J. Med. Chem., vol. 17 (1974) at 969. The values are expressed as pA2 values, defined by Schild et al., Br. J. Pharmacol., vol. 2 (1947) at 189.
(§1) Antagonistic potencies were determined and expressed as "effective doses" and as pA2 values. The "effective dose" is defined as the dose (in nanomoles per kilogram) that reduces the response seen from 2x units of agonist injected 20 min after the dose of antagonist to the response with 1x units of agonist.

[2] = tested on: antidiuretic response to ADH (arginine vasopressin); assay: Antagonism of the antidiuretic response to ADH (anti-antidiuretic potency) in ethanol-anesthetized water-loaded rats; conditions: estimated in vivo pA2 = negative logarithm of effective dose divided by estimated volume of distribution (67 mL/kg); (n) in parentheses
Method: Activity as antidiuretic agonists was determined by intravenous injection of compounds being evaluated into ethanol-anesthesized water-loaded rats in accordance with Sawyer et al., Endocrinology, vol. 63 (1958) at 694.
as §1

Row | SMILES | Antivasopressor pA2 [1] | Anti-Antidiuretic pA2 [2]
1 | CCOc1ccc(C[C@H]2NC(=O)CC3(CCCCC3)SSC[C@@H](C(=O)N3CCC[C@H]3C(=O)N[C@@H](CCCNC(=N)N)C(=O)NCC(N)=O)NC(=O)[C@H](CC(N)=O)NC(=O)[C@H](C(C)C)NC(=O)[C@H](Cc3ccccc3)NC2=O)cc1 [d(CH2)5 --D-Tyr(Et) VAVP] ([dY](Et)FVNCPRG-NH2; linker N-5 via X1) | 8.22 ± 0.12 | 7.81 ± 0.07
2 | COc1ccc(C[C@H]2NC(=O)CC3(CCCCC3)SSC[C@@H](C(=O)N3CCC[C@H]3C(=O)N[C@@H](CCCNC(=N)N)C(=O)NCC(N)=O)NC(=O)[C@H](CC(N)=O)NC(=O)[C@H](C(C)C)NC(=O)[C@H](Cc3ccccc3)NC2=O)cc1 [d(CH2)5 --D-Tyr(Me) VAVP] ([dY](Me)FVNCPRG-NH2; linker N-5 via X1) | 8.48 ± 0.08 | 7.77 ± 0.07
3 | CC(C)[C@@H]1NC(=O)[C@H](Cc2ccccc2)NC(=O)[C@@H](Cc2ccccc2)NC(=O)CC2(CCCCC2)SSC[C@@H](C(=O)N2CCC[C@H]2C(=O)N[C@@H](CCCNC(=N)N)C(=O)NCC(N)=O)NC(=O)[C@H](CC(N)=O)NC1=O [d(CH2)5 D-Phe VAVP, [1-(β-mercapto-β,β-cyclopentamethylenepropionicacid), 2-D-phenylalanine, 4-valine]-arginine vasopressin] ([dF]FVNCPRG-NH2; linker N-5 via X1) | 8.06 ± 0.03 | 8.07 ± 0.09
4 | CC(C)[C@@H]1NC(=O)[C@H](Cc2ccccc2)NC(=O)[C@@H](Cc2ccccc2)NC(=O)CC2(CCCCC2)SSC[C@@H](C(=O)N2CCC[C@H]2C(=O)N[C@H](CCCNC(=N)N)C(=O)NCC(N)=O)NC(=O)[C@H](CC(N)=O)NC1=O [d(CH2)5 D-Phe VDAVP, [1-(β-mercapto-β,β-cyclopentamethylenepropionic acid), 2-D-phenylalanine, 4-valine, 8-D-arginine] vasopressin] ([dF]FVNCP[dR]G-NH2; linker N-5 via X1) | 7.98 ± 0.07 | 7.07 ± 0.10
5 | CC(C)[C@@H]1NC(=O)[C@H](Cc2ccccc2)NC(=O)[C@@H](Cc2ccc(O)cc2)NC(=O)CC2(CCCCC2)SSC[C@@H](C(=O)N2CCC[C@H]2C(=O)N[C@@H](CCCNC(=N)N)C(=O)NCC(N)=O)NC(=O)[C@H](CC(N)=O)NC1=O [d(CH2)5 D-Tyr VAVP, [1-(β-mercapto-β,β-cyclopentamethylenepropionic acid), 2-D-tyrosine, 4-valine]-arginine vasopressin] ([dY]FVNCPRG-NH2; linker N-5 via X1) | 8.41 ± 0.11 | 7.51 ± 0.08
6 | CCOc1ccc(C[C@@H]2NC(=O)CC3(CCCCC3)SSC[C@@H](C(=O)N3CCC[C@H]3C(=O)N[C@@H](CCCNC(=N)N)C(=O)NCC(N)=O)NC(=O)[C@H](CC(N)=O)NC(=O)[C@H](C(C)C)NC(=O)[C@H](Cc3ccccc3)NC2=O)cc1 [d(CH2)5 Tyr(Et) VAVP] (Y(Et)FVNCPRG-NH2; linker N-5 via X1) | 8.16 ± 0.09 | 7.57 ± 0.06
7 | CCOc1ccc(C[C@@H]2NC(=O)CC3(CCCCC3)SSC[C@@H](C(=O)N3CCC[C@H]3C(=O)N[C@H](CCCNC(=N)N)C(=O)NCC(N)=O)NC(=O)[C@H](CC(N)=O)NC(=O)[C@H](C(C)C)NC(=O)[C@H](Cc3ccccc3)NC2=O)cc1 [d(CH2)5 Tyr(Et) VDAVP] (Y(Et)FVNCP[dR]G-NH2; linker N-5 via X1) | 8.31 ± 0.05 | 7.10 ± 0.08
8 | CC(C)[C@@H]1NC(=O)[C@H](Cc2ccccc2)NC(=O)[C@@H](C)NC(=O)CC2(CCCCC2)SSC[C@@H](C(=O)N2CCC[C@H]2C(=O)N[C@@H](CCCNC(=N)N)C(=O)NCC(N)=O)NC(=O)[C@H](CC(N)=O)NC1=O [d(CH2)5 [D-Ala^2] VAVP, [1-(β-mercapto-β,β-cyclopentamethylenepropionic acid), 2-D-alanine, 4-valine]-arginine vasopressin] ([dA]FVNCPRG-NH2; linker N-5 via X1) | 5.79 ± 0.08 | –
